Laboratory results as given in ChEMBL document CHEMBL1201862, “PubChem BioAssay data set” (2004).
Values joined by “and” are separate entries in the source; they are usually repeats but may differ in a detail not shown here. Equal values may be shown once.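 Where inhibition never reached the appropriate level, the endpoint shown equals the highest concentration tested. Otherwise, values were interpolated linearly from a five-concentration, 48-hour dose response in 96-well plates. Abbreviation: GI50, concentration required for 50% inhibition of growth.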 Active and inactive are the calls of the source. No stated cut-off is given here; in the data, active = GI50 up to about 1.1 µM and inactive = higher.

Experiments:
Experiment in all cases: growth of human tumour cells (NCI), 48 h
SW-620 = test system: SW-620
CCRF-CEM = test system: CCRF-CEM
RPMI-8226 = test system: RPMI-8226
SNB-19 = test system: SNB-19
K562 = test system: K562
HOP-92 = test system: HOP-92
CAKI-1 = test system: CAKI-1
MDA-MB-231 = test system: MDA-MB-231
UACC-257 = test system: UACC-257
A498 = test system: A498
OVCAR-5 = test system: OVCAR-5
MDA-MB-435 = test system: MDA-MB-435
OVCAR-3 = test system: OVCAR-3
BT-549 = test system: BT-549
EKVX = test system: EKVX
786-0 = test system: 786-0
ACHN = test system: ACHN
SK-MEL-5 = test system: SK-MEL-5
HCC 2998 = test system: HCC 2998
DU-145 = test system: DU-145

SMILES | GI50 (SW-620) | GI50 (CCRF-CEM) | GI50 (RPMI-8226) | GI50 (SNB-19) | GI50 (K562) | GI50 (HOP-92) | GI50 (CAKI-1) | GI50 (MDA-MB-231) | GI50 (UACC-257) | GI50 (A498) | GI50 (OVCAR-5) | GI50 (MDA-MB-435) | GI50 (OVCAR-3) | GI50 (BT-549) | GI50 (EKVX) | GI50 (786-0) | GI50 (ACHN) | GI50 (SK-MEL-5) | GI50 (HCC 2998) | GI50 (DU-145)
CCOC(=S)SCC(=O)O | > 100 µM (inactive) | 1 µM (active) | > 100 µM (inactive) | > 100 µM (inactive) | > 100 µM (inactive) | > 100 µM (inactive) | > 100 µM (inactive) | > 100 µM (inactive) | > 100 µM (inactive) | > 100 µM (inactive) | > 100 µM (inactive) | > 100 µM (inactive) | > 100 µM (inactive) | > 100 µM (inactive) | > 100 µM (inactive) | > 100 µM (inactive) | > 100 µM (inactive) | > 100 µM (inactive) |  | 
CC1(C)CC(=O)c2c(nc(SSc3nc4c(c(-c5ccccc5)c3C#N)C(=O)CC(C)(C)C4)c(C#N)c2-c2ccccc2)C1 | > 10 µM (inactive) | > 10 µM (inactive) | > 10 µM (inactive) | > 10 µM (inactive) | > 10 µM (inactive) | > 10 µM (inactive) | > 10 µM (inactive) |  | > 10 µM (inactive) | > 10 µM (inactive) | > 10 µM (inactive) |  | > 10 µM (inactive) | > 10 µM (inactive) | > 10 µM (inactive) | > 10 µM (inactive) | > 10 µM (inactive) | > 10 µM (inactive) | > 10 µM (inactive) | > 10 µM (inactive)
CCOC(=O)NCC(=O)NCC(=O)NCC(N)=O | > 100 µM (inactive) | > 100 µM (inactive) | > 100 µM (inactive) | > 100 µM (inactive) | > 100 µM (inactive) |  | > 100 µM (inactive) | > 100 µM (inactive) | > 100 µM (inactive) |  | > 100 µM (inactive) | > 100 µM (inactive) | > 100 µM (inactive) | > 100 µM (inactive) | > 100 µM (inactive) | > 100 µM (inactive) | > 100 µM (inactive) | > 100 µM (inactive) | > 100 µM (inactive) | > 100 µM (inactive)
Cc1nc2sc3ccccc3n2c(=O)c1/N=N/c1ccc(Cl)cc1 | > 100 µM (inactive) | > 100 µM (inactive) | > 100 µM (inactive) | > 100 µM (inactive) | > 100 µM (inactive) | > 100 µM (inactive) | > 100 µM (inactive) | 83.9 µM (inactive) | > 100 µM (inactive) |  | > 100 µM (inactive) | > 100 µM (inactive) | > 100 µM (inactive) | > 100 µM (inactive) | > 100 µM (inactive) | > 100 µM (inactive) | > 100 µM (inactive) | > 100 µM (inactive) |  | > 100 µM (inactive)
N#Cc1c(-c2ccccc2)c(C#N)c(=S)n(C2OC(CO)C(O)C(O)C2O)c1N (configuration not stated) | > 100 µM (inactive) | > 100 µM (inactive) and 50.9 µM (inactive) | > 100 µM (inactive) and 75.5 µM (inactive) | > 100 µM (inactive) | > 100 µM (inactive) and 59.4 µM (inactive) |  | 92.7 µM (inactive) | > 100 µM (inactive) | > 100 µM (inactive) | 38.7 µM (inactive) and 44.2 µM (inactive) | > 100 µM (inactive) and 85.1 µM (inactive) |  | > 100 µM (inactive) | 46.1 µM (inactive) and 80 µM (inactive) |  | > 100 µM (inactive) | 99.8 µM (inactive) and 61.2 µM (inactive) | 71.6 µM (inactive) | > 100 µM (inactive) and 96.4 µM (inactive) | > 100 µM (inactive)
N#Cc1c(-c2ccccc2)c(C#N)c(=O)n(NS(=O)(=O)c2ccccc2)c1O | > 100 µM (inactive) | > 100 µM (inactive) | > 100 µM (inactive) | > 100 µM (inactive) | > 100 µM (inactive) | > 100 µM (inactive) | > 100 µM (inactive) | > 100 µM (inactive) | > 100 µM (inactive) | > 100 µM (inactive) | > 100 µM (inactive) | > 100 µM (inactive) |  | > 100 µM (inactive) | > 100 µM (inactive) | > 100 µM (inactive) | > 100 µM (inactive) | > 100 µM (inactive) | > 100 µM (inactive) | 
Cc1cc2[nH]c3c(C#N)c(-c4ccccc4)c(CN4CCOCC4)c(=O)n3c2cc1C | > 100 µM (inactive) | > 100 µM (inactive) | > 100 µM (inactive) | > 100 µM (inactive) |  |  | > 100 µM (inactive) | > 100 µM (inactive) | > 100 µM (inactive) | > 100 µM (inactive) | > 100 µM (inactive) | > 100 µM (inactive) | > 100 µM (inactive) | > 100 µM (inactive) | > 100 µM (inactive) | > 100 µM (inactive) | > 100 µM (inactive) |  | > 100 µM (inactive) | 
Cc1cc(NS(=O)(=O)c2ccc(/N=N/c3c(O)c(C(=O)O)cc4ccccc34)cc2)nc(C)n1 | > 100 µM (inactive) | > 100 µM (inactive) | > 100 µM (inactive) | > 100 µM (inactive) | > 100 µM (inactive) | > 100 µM (inactive) | > 100 µM (inactive) | > 100 µM (inactive) | > 100 µM (inactive) |  | > 100 µM (inactive) | > 100 µM (inactive) | > 100 µM (inactive) | > 100 µM (inactive) | > 100 µM (inactive) | > 100 µM (inactive) | > 100 µM (inactive) | > 100 µM (inactive) | > 100 µM (inactive) | 
CCN(CC)CCC(=O)OC1C(C)=CC(C)C(=O)CC(C(C)CC2CCC(O)C(OC)C2)OC(=O)C2CCCCN2C(=O)C(=O)[C@@]2(O)OC(CCC2C)CC(OC)\C(C)=C/C=C/C=C/C(C)CC(C)C(=O)C1OC (some centres not stated) | 11.6 µM (inactive) |  | 0.415 µM (active) | 4.34 µM (inactive) | < 0.0183 µM (active) | < 0.01 µM (active) | 0.975 µM (active) | 12.8 µM (inactive) | 13.3 µM (inactive) | < 0.01 µM (active) | 10.3 µM (inactive) | 4.57 µM (inactive) | 11.2 µM (inactive) | < 0.01 µM (active) | < 0.01 µM (active) | 7.91 µM (inactive) | 1.05 µM (active) |  | 1.87 µM (inactive) | 
Cc1cc2nc(-c3cc(C(C)(C)C)c(O)c(C(C)(C)C)c3)[nH]c2cc1C | 1.65 µM (inactive) | 1.39 µM (inactive) | 12.8 µM (inactive) | 11.6 µM (inactive) | 3.18 µM (inactive) | > 100 µM (inactive) |  |  | > 52.2 µM (inactive) | > 100 µM (inactive) | > 100 µM (inactive) | > 23.3 µM (inactive) | 11.6 µM (inactive) | > 100 µM (inactive) | > 39.1 µM (inactive) | 0.867 µM (active) |  | > 71 µM (inactive) | 5.81 µM (inactive) | > 100 µM (inactive)
Cc1nc2c(o1)C(=O)c1ccccc1/C2=N/c1ccccn1 | 17.8 µM (inactive) | 18.5 µM (inactive) | 17.4 µM (inactive) | 14.8 µM (inactive) | 29.8 µM (inactive) | 18.2 µM (inactive) | 25.8 µM (inactive) | 15.6 µM (inactive) | 14 µM (inactive) | 16.7 µM (inactive) | 17.9 µM (inactive) | 17.9 µM (inactive) | 4.66 µM (inactive) | 18.3 µM (inactive) | 17.7 µM (inactive) | 25.6 µM (inactive) | 17.3 µM (inactive) | 16.7 µM (inactive) | 21.9 µM (inactive) | 
CC(C)(CN1CCCCC1)C(/C=C/c1ccccc1)=N\NC(=O)N/N=C(/C=C/c1ccccc1)C(C)(C)CN1CCCCC1 | 1.7 µM (inactive) | 1.19 µM (inactive) | 1.27 µM (inactive) | 1.91 µM (inactive) | 1.19 µM (inactive) | 1.75 µM (inactive) | 2.27 µM (inactive) | 1.36 µM (inactive) | 1.71 µM (inactive) | 1.5 µM (inactive) | 4.29 µM (inactive) | 1.51 µM (inactive) | 2.34 µM (inactive) | 1.77 µM (inactive) | 6.84 µM (inactive) | 1.46 µM (inactive) | 3.32 µM (inactive) | 1.72 µM (inactive) | 0.543 µM (active) | 
COC(=O)n1c(C)c(C=O)c2ccc(OC)cc21 |  | 32.4 µM (inactive) |  | 42.7 µM (inactive) | 38 µM (inactive) |  | 38.9 µM (inactive) | > 100 µM (inactive) | 45.2 µM (inactive) |  | 54.7 µM (inactive) | 21.1 µM (inactive) | 59.6 µM (inactive) | 26.7 µM (inactive) | 46.5 µM (inactive) | 36 µM (inactive) | 33.1 µM (inactive) | 21.6 µM (inactive) | 25.9 µM (inactive) | 41.1 µM (inactive)
O=C1NC(Nc2ccccc2)=N/C1=C\c1c(Cl)cccc1Cl | 36.1 µM (inactive) | 14.3 µM (inactive) | 33.5 µM (inactive) | 25 µM (inactive) | 21 µM (inactive) | 11.9 µM (inactive) | 48.1 µM (inactive) |  | 23.8 µM (inactive) | 32.3 µM (inactive) | 29 µM (inactive) | 32.4 µM (inactive) | 63.4 µM (inactive) | > 100 µM (inactive) | 20.6 µM (inactive) | 15.1 µM (inactive) | 37.5 µM (inactive) | 16.3 µM (inactive) | 21.4 µM (inactive) | 24.7 µM (inactive)
COc1cc(C2c3cc4c(cc3[C@@H](Nc3ccc([N+](=O)[O-])cc3)C3COC(=O)[C@H]23)OCO4)cc(OC)c1O (some centres not stated) | 1.5 µM (inactive) | 0.198 µM (active) | 0.525 µM (active) | 0.778 µM (active) | 2.44 µM (inactive) | 1.78 µM (inactive) | 0.438 µM (active) |  | 4.65 µM (inactive) | 0.676 µM (active) | 2.69 µM (inactive) | 6.11 µM (inactive) | 4.57 µM (inactive) | 2.3 µM (inactive) | 3.37 µM (inactive) | 0.652 µM (active) | 0.25 µM (active) | 0.586 µM (active) | 2.99 µM (inactive) | 0.362 µM (active)
